Reference: patent publication US10188677B2, “Iron supplement composition” (THE D DROPS COMPANY INC., priority 2011, dated 2019)
Marks after values point to notes of the source that are not given here.

Columns and labels:
Type in all cases: physicochemical
[1] = Settling: time for iron salt particulate to show evidence of settling in carrier liquid
Description: Settling behavior was also tested for each carrier liquid. Test tubes of carrier liquid were loaded with either ferrous sulfate (dried) or ferrous fumarate at concentrations of 66 mg/mL of elemental iron. […] Settling was then allowed to proceed and the time required for the iron salt particulate to show evidence of settling was recorded. Evidence of settling was considered as a reduction in opacity throughout the top 1 cm of liquid in the test tube.

[2] = Drop consistency for Eurodropper dispensing
Description: Drop consistency was examined to determine suitability of various dispersions for Eurodropper dispensing. Preparations of various iron salts, at concentrations of 66 mg/mL, were made using medium chain triglyceride oil. Each sample was shaken vigorously and then inverted to dispense 10 drops. This was repeated until 60 drops were dispensed.
The effect of carrier liquid type on drop consistency was next examined. Preparations of ferrous fumarate (149 μm particle size) were prepared and drop consistency was measured using similar methodology to that described above.

[3] = Dispersion: number of test tube inversions to achieve even dispersion of iron salt in carrier liquid; conditions: for Dispersion (# of inversions): 66 mg/mL elemental iron
Description: (§1) Iron salt in the form of ferrous sulfate (dried) and ferrous fumarate were investigated for dispersibility and settling behavior in a range of carrier liquids. Sufficient iron salt was added to test tubes to achieve concentrations of elemental iron equivalent to 66 mg/mL suspension (i.e., 2 mg/drop, a commercially-viable concentration for infant supplementation).
The initial preparation of dry powder iron salts into suspension was achieved by weighing the desired amount of dry powder, which was added to the liquid in a capped test tube. The combination was shaken for about two minutes, and it was then allowed to settle overnight to promote thorough particle whetting.
Suitability of the preparation for suspension was next tested by counting the number inversions of the test tube inversions required to achieve an even dispersion of particles in the carrier liquid. Each replicate began with iron salt fully settled at the bottom of the test tube.

[4] = Viscosity and density of carrier liquids
Description: as §1

[5] = carrier: medium chain triglyceride, 66 mg/mL elemental iron
[6] = carrier: olive oil, 66 mg/mL elemental iron
[7] = carrier: rapeseed oil, 66 mg/mL elemental iron
[8] = iron salt 66 mg/mL in medium chain triglyceride oil
[9] = carrier: medium chain triglyceride

Compound	Settling [1, 5]	Settling [1, 6]	Settling [1, 7]	Dispensing of dispersion from the Eurodropper [2, 8]	Dispersion (# of inversions) [3, 9]	Dispersion (# of inversions) ([3]; carrier: olive oil)	Dispersion (# of inversions) ([3]; carrier: rapeseed oil)	Dispersibility ([3]; water-based preparations)	also measured
O=S(=O)([O-])[O-].[Fe+2] [Ferrous sulfate (dried), ferrous sulfate (dried)]	42.3 ± 8.5 s	213.3 ± 7.6 s	238.7 ± 5.9 s	** Dispersion failed to dispense at all from the Eurodropper because the powder clumped in the oil, and occluded opening.	7.3 ± 0.6 # of inversions	27.3 ± 4.5 # of inversions	62.0 ± 6.0 # of inversions	not at all	
O=C([O-])/C=C/C(=O)[O-].[Fe+2] [Ferrous fumarate, ferrous fumarate]	16.3 ± 1.2 s	95.5 ± 4.9 s	144.0 ± 5.7 s		56.4 ± 10.6 # of inversions	84.0 ± 1.4 # of inversions	167.0 ± 7.0 # of inversions	very easily	Settling ([1]; carrier: water, 66 mg/mL elemental iron): 1.0 ± 0.5 s; Settling ([1]; in water): extremely rapid settling; Average 10 Drop Weight (mg ± SD) ([2]; ferrous fumarate 149 μm particle size, carrier: canola oil): 284.8 ± 4.7 mg; Average 10 Drop Weight (mg ± SD) ([2]; ferrous fumarate 149 μm particle size, carrier: medium chain triglyceride): 276.2 ± 3.0 mg; Average 10 Drop Weight (mg ± SD) ([2]; ferrous fumarate 149 μm particle size, carrier: olive oil): 285.8 ± 3.5 mg; Average 10 Drop Weight (mg ± SD) ([2]; ferrous fumarate 149 μm particle size, carrier: water): Occluded *; Average 10 Drop Weight (mg ± SD) ([2]; iron salt 66 mg/mL in medium chain triglyceride oil, Eurodropper, 60 drops, listed as Ferrous fumarate (Sigma, XXX μm)): 264.7 ± 10.2 mg; Average 10 Drop Weight (mg ± SD) ([2]; iron salt 66 mg/mL in medium chain triglyceride oil, Eurodropper, 60 drops, listed as Ferrous fumarate (Watson, 149 μm)): 277.0 ± 10.3 mg; Performance in the Eurodropper ([2]; regardless of carrier liquid): consistent performance; Dispersibility ([3]; carrier: medium chain triglyceride oil, relative to the other carriers): acceptably rapid; Dispersion (# of inversions) ([3]; carrier: water): 4.3 ± 0.6 # of inversions
O=P([O-])([O-])OP(=O)([O-])[O-].[Fe+2].[Fe+2] [Ferrous pyrophosphate]				* Dispersion failed to dispense from the Eurodropper after 15 drops.					Average 10 Drop Weight (mg ± SD) ([2]; iron salt 66 mg/mL in medium chain triglyceride oil, Eurodropper, 60 drops): 266 * mg
O [Water]									Density [4]: 1 g/mL; Viscosity ([4]; @ 20° C.): 1 cP
